Experimental data from article PMC5118696, “Identification of inhibitors that dually target the new permeability pathway and dihydroorotate dehydrogenase in the blood stage of Plasmodium falciparum” (Scientific Reports, 2016).

tested on: Hyp1-NLuc Plasmodium falciparum-infected erythrocytes (new permeability pathway, NPP); assay: microbe, parasite or virus in culture; details: Erythrocyte, 0.33 h, read-out: Mean RLU at 28 min (As % of DMSO control)

CCOc1cc(Cl)c(C(C)NC(=O)c2cccc(OC)c2)cc1OCC (centres unmarked) [MMV665803] was tested. Which activity at 2 µM did it give?
The activity at 2 µM was 113%.

OC(CNC1CCCC1)Cn1c2ccccc2c2ccccc21 (centres unmarked) [MMV000848] was tested. Which activity at 2 µM did it give?
The activity at 2 µM was 112%.

O=C(Nc1ccc(Cl)cc1C(=O)Nc1ccncc1)c1ccc(Cl)cc1Cl [MMV666057] was tested. Which activity at 2 µM did it give?
The activity at 2 µM was 105%.

How did the activity at 2 µM turn out when CCOC(=O)C1CCN(C(=O)CN2C(=O)c3ccccc3C2c2c[nH]c3ccccc23)CC1 (centres unmarked) [MMV011576] was run?
Its activity at 2 µM is 107%.

How did the activity at 2 µM turn out when Cc1ccc(Nc2nc(NCCO)c3ccccc3n2)cc1C [MMV001038] was run?
Its activity at 2 µM is 102%.

How did the activity at 2 µM turn out when COc1ccc(C2c3ccc4ccccc4c3Oc3ncn(CCCN(C)C)c(=N)c32)cc1 (centres unmarked) [MMV667491] was run?
Its activity at 2 µM is 87.3%.

Which activity at 2 µM does the source give for COc1ccc(-c2cn3c(C(=O)Nc4ccccc4Cl)c(-c4ccccc4)c4c3n2CCCC4)cc1 [MMV020403] here?
The activity at 2 µM was 103%.

How did the activity at 2 µM turn out when FC(F)(F)c1cccc(Nc2nc3ccccc3nc2Nc2cccc(C(F)(F)F)c2)c1 [MMV665794] was run?
The activity at 2 µM was 103%.

How did the activity at 2 µM turn out when CCN1CCN(c2cc(C)c3cc(NC(=O)c4ccc(OC)c(OC)c4)ccc3n2)CC1 [MMV019074] was run?
Its activity at 2 µM is 104%.

With CC(=O)NCCc1nc2ccccc2n1Cc1ccc(C(C)C)cc1 [MMV007617] as the compound, how does the activity at 2 µM read?
Its activity at 2 µM is 95.2%.

O=C(Nc1ccccc1O)c1ccc(Oc2cccc(C(=O)Nc3ccccc3O)c2)cc1 [MMV665888] was tested. Which activity at 2 µM did it give?
The activity at 2 µM was 102%.

How did the activity at 2 µM turn out when CCN(Cc1ccccc1)C1CCN(Cc2cc(Br)ccc2O)CC1 [MMV019127] was run?
Its activity at 2 µM is 109%.

Which activity at 2 µM does the source give for CCN(CC)S(=O)(=O)c1ccc(-c2csc(Nc3ccc(C)c(C)c3)n2)cc1 [MMV009108] here?
The activity at 2 µM was 107%.

With CCCCCCn1c(=N)n(CC(O)COc2cccc(C)c2)c2ccccc21 (centres unmarked) [MMV000445] as the compound, how does the activity at 2 µM read?
Its activity at 2 µM is 87.2%.

Which activity at 2 µM does the source give for Oc1ccc(Br)cc1CN1CCN(Cc2cccc(F)c2)CC1 [MMV000356] here?
The activity at 2 µM was 101%.

How did the activity at 2 µM turn out when Cc1cc(Nc2ccc(Cl)cc2)n2nc(C(F)(F)F)nc2n1 [MMV011256] was run?
The activity at 2 µM was 111%.

CN(C)c1ccc(N2C(N)=NC(N)=NC2(C)C)cc1 [MMV667487] was tested. Which activity at 2 µM did it give?
Its activity at 2 µM is 97%.

Cc1ccc(Cn2c(N3CCC(C(=O)NCc4cccs4)CC3)nc3ccccc32)cc1 [MMV007564] was tested. Which activity at 2 µM did it give?
The activity at 2 µM was 96.6%.

How did the activity at 2 µM turn out when CCOC(=O)c1cnc2c(C)cccc2c1Nc1ccc(C(C)=O)cc1 [MMV006250] was run?
Its activity at 2 µM is 95.8%.

CCOc1ccc(Nc2c3ccccc3nc3ccccc23)cc1 [MMV000304] was tested. Which activity at 2 µM did it give?
The activity at 2 µM was 107%.

For CC(C)CNC(=O)c1c(N)n(CCc2ccccc2F)c2nc3ccccc3nc12 [MMV396744], which activity at 2 µM is on record?
Its activity at 2 µM is 108%.

How did the activity at 2 µM turn out when COc1ccc2nc(N)nc(C)c2c1 [MMV665897] was run?
The activity at 2 µM was 103%.

For Cc1cc(NC(=O)c2cccc(C(F)(F)F)c2)n(-c2nc(-c3ccc4c(c3)OCO4)cs2)n1 [MMV396681], which activity at 2 µM is on record?
The activity at 2 µM was 106%.

Which activity at 2 µM does the source give for COc1ccc(C(=O)Nc2ccc(Cl)cc2C(=O)Nc2ccncc2)cc1 [MMV665799] here?
Its activity at 2 µM is 100%.

With O=C(c1ccccc1F)N(Cc1ccc(Cl)cc1)c1ccccn1 [MMV665899] as the compound, how does the activity at 2 µM read?
Its activity at 2 µM is 102%.

How did the activity at 2 µM turn out when CCCCCCc1cc2cc(-c3nc4ccccc4[nH]3)c(=Nc3ccccc3C)oc2cc1O [MMV666597] was run?
Its activity at 2 µM is 102%.

Which activity at 2 µM does the source give for Nc1ccn(C2O[C@H](CO)[C@@H](O)[C@H]2O)c(=O)n1 (some centres unmarked) [MMV638723] here?
Its activity at 2 µM is 86.2%.

With CCCOCc1cc(CN2CCN(c3cccc(Cl)c3)CC2)c(O)c2ncccc12 [MMV000787] as the compound, how does the activity at 2 µM read?
The activity at 2 µM was 101%.

COc1ccc(C(=O)Nc2ccc3nc(N4CCCCC4)cc(C)c3c2)cc1OC [MMV019758] was tested. Which activity at 2 µM did it give?
Its activity at 2 µM is 100%.

For COc1ccccc1N=C1C(=O)c2ccccc2C(O)=C1N1CCCCC1 [MMV085203], which activity at 2 µM is on record?
Its activity at 2 µM is 107%.

Which activity at 2 µM does the source give for CCCCNc1nc(NC(C)(C)C)nc(NC(C)(C)C)n1 [MMV665864] here?
Its activity at 2 µM is 119%.

CCOC(=O)C1=C(c2ccccc2)N=c2sc(=Cc3cc(C)n(-c4ccc(F)cc4)c3C)c(=O)n2C1c1cccc(OC)c1OC (centres unmarked) [MMV666601] was tested. Which activity at 2 µM did it give?
Its activity at 2 µM is 105%.

Which activity at 2 µM does the source give for CCN(CC)c1cc(C)c2cc(NC(=O)c3cccc(OC)c3)ccc2n1 [MMV000498] here?
The activity at 2 µM was 107%.

How did the activity at 2 µM turn out when COc1ccc(NC(=O)C2c3ccccc3C(=O)N(CC(C)C)C2c2cccs2)cc1 (centres unmarked) [MMV000662] was run?
Its activity at 2 µM is 85.9%.

tested on: Hyp1-NLuc Plasmodium falciparum-infected erythrocytes (new permeability pathway, NPP); assay: microbe, parasite or virus in culture; details: Erythrocyte, 0.33 h, read-out: % of control remaining

Which activity at 2 µM does the source give for CCOc1cc(Cl)c(C(C)NC(=O)c2cccc(OC)c2)cc1OCC (centres unmarked) [MMV665803] here?
The activity at 2 µM was 124%.

With OC(CNC1CCCC1)Cn1c2ccccc2c2ccccc21 (centres unmarked) [MMV000848] as the compound, how does the activity at 2 µM read?
The activity at 2 µM was 110%.

O=C(Nc1ccc(Cl)cc1C(=O)Nc1ccncc1)c1ccc(Cl)cc1Cl [MMV666057] was tested. Which activity at 2 µM did it give?
The activity at 2 µM was 119%.

Which activity at 2 µM does the source give for CCOC(=O)C1CCN(C(=O)CN2C(=O)c3ccccc3C2c2c[nH]c3ccccc23)CC1 (centres unmarked) [MMV011576] here?
The activity at 2 µM was 107%.

With Cc1ccc(Nc2nc(NCCO)c3ccccc3n2)cc1C [MMV001038] as the compound, how does the activity at 2 µM read?
The activity at 2 µM was 102%.

Which activity at 2 µM does the source give for COc1ccc(C2c3ccc4ccccc4c3Oc3ncn(CCCN(C)C)c(=N)c32)cc1 (centres unmarked) [MMV667491] here?
Its activity at 2 µM is 69.1%.

With COc1ccc(-c2cn3c(C(=O)Nc4ccccc4Cl)c(-c4ccccc4)c4c3n2CCCC4)cc1 [MMV020403] as the compound, how does the activity at 2 µM read?
Its activity at 2 µM is 106%.

FC(F)(F)c1cccc(Nc2nc3ccccc3nc2Nc2cccc(C(F)(F)F)c2)c1 [MMV665794] was tested. Which activity at 2 µM did it give?
Its activity at 2 µM is 109%.

For CCN1CCN(c2cc(C)c3cc(NC(=O)c4ccc(OC)c(OC)c4)ccc3n2)CC1 [MMV019074], which activity at 2 µM is on record?
Its activity at 2 µM is 118%.

For CC(=O)NCCc1nc2ccccc2n1Cc1ccc(C(C)C)cc1 [MMV007617], which activity at 2 µM is on record?
Its activity at 2 µM is 82.1%.

For O=C(Nc1ccccc1O)c1ccc(Oc2cccc(C(=O)Nc3ccccc3O)c2)cc1 [MMV665888], which activity at 2 µM is on record?
The activity at 2 µM was 104%.

CCN(Cc1ccccc1)C1CCN(Cc2cc(Br)ccc2O)CC1 [MMV019127] was tested. Which activity at 2 µM did it give?
Its activity at 2 µM is 107%.

For CCN(CC)S(=O)(=O)c1ccc(-c2csc(Nc3ccc(C)c(C)c3)n2)cc1 [MMV009108], which activity at 2 µM is on record?
The activity at 2 µM was 107%.

How did the activity at 2 µM turn out when CCCCCCn1c(=N)n(CC(O)COc2cccc(C)c2)c2ccccc21 (centres unmarked) [MMV000445] was run?
The activity at 2 µM was 93.8%.

For Oc1ccc(Br)cc1CN1CCN(Cc2cccc(F)c2)CC1 [MMV000356], which activity at 2 µM is on record?
The activity at 2 µM was 98.9%.

How did the activity at 2 µM turn out when Cc1cc(Nc2ccc(Cl)cc2)n2nc(C(F)(F)F)nc2n1 [MMV011256] was run?
The activity at 2 µM was 109%.

With CN(C)c1ccc(N2C(N)=NC(N)=NC2(C)C)cc1 [MMV667487] as the compound, how does the activity at 2 µM read?
The activity at 2 µM was 98.1%.

How did the activity at 2 µM turn out when Cc1ccc(Cn2c(N3CCC(C(=O)NCc4cccs4)CC3)nc3ccccc32)cc1 [MMV007564] was run?
The activity at 2 µM was 104%.

How did the activity at 2 µM turn out when CCOC(=O)c1cnc2c(C)cccc2c1Nc1ccc(C(C)=O)cc1 [MMV006250] was run?
Its activity at 2 µM is 103%.

How did the activity at 2 µM turn out when CCOc1ccc(Nc2c3ccccc3nc3ccccc23)cc1 [MMV000304] was run?
Its activity at 2 µM is 109%.

How did the activity at 2 µM turn out when CC(C)CNC(=O)c1c(N)n(CCc2ccccc2F)c2nc3ccccc3nc12 [MMV396744] was run?
Its activity at 2 µM is 110%.

COc1ccc2nc(N)nc(C)c2c1 [MMV665897] was tested. Which activity at 2 µM did it give?
Its activity at 2 µM is 93.5%.

With Cc1cc(NC(=O)c2cccc(C(F)(F)F)c2)n(-c2nc(-c3ccc4c(c3)OCO4)cs2)n1 [MMV396681] as the compound, how does the activity at 2 µM read?
The activity at 2 µM was 102%.

For COc1ccc(C(=O)Nc2ccc(Cl)cc2C(=O)Nc2ccncc2)cc1 [MMV665799], which activity at 2 µM is on record?
Its activity at 2 µM is 111%.

For O=C(c1ccccc1F)N(Cc1ccc(Cl)cc1)c1ccccn1 [MMV665899], which activity at 2 µM is on record?
The activity at 2 µM was 106%.

For CCCCCCc1cc2cc(-c3nc4ccccc4[nH]3)c(=Nc3ccccc3C)oc2cc1O [MMV666597], which activity at 2 µM is on record?
The activity at 2 µM was 111%.

Nc1ccn(C2O[C@H](CO)[C@@H](O)[C@H]2O)c(=O)n1 (some centres unmarked) [MMV638723] was tested. Which activity at 2 µM did it give?
Its activity at 2 µM is 88.6%.

For CCCOCc1cc(CN2CCN(c3cccc(Cl)c3)CC2)c(O)c2ncccc12 [MMV000787], which activity at 2 µM is on record?
Its activity at 2 µM is 111%.

How did the activity at 2 µM turn out when COc1ccc(C(=O)Nc2ccc3nc(N4CCCCC4)cc(C)c3c2)cc1OC [MMV019758] was run?
Its activity at 2 µM is 108%.

With COc1ccccc1N=C1C(=O)c2ccccc2C(O)=C1N1CCCCC1 [MMV085203] as the compound, how does the activity at 2 µM read?
Its activity at 2 µM is 104%.

How did the activity at 2 µM turn out when CCCCNc1nc(NC(C)(C)C)nc(NC(C)(C)C)n1 [MMV665864] was run?
Its activity at 2 µM is 130%.

For CCOC(=O)C1=C(c2ccccc2)N=c2sc(=Cc3cc(C)n(-c4ccc(F)cc4)c3C)c(=O)n2C1c1cccc(OC)c1OC (centres unmarked) [MMV666601], which activity at 2 µM is on record?
The activity at 2 µM was 103%.

How did the activity at 2 µM turn out when CCN(CC)c1cc(C)c2cc(NC(=O)c3cccc(OC)c3)ccc2n1 [MMV000498] was run?
Its activity at 2 µM is 118%.

Which activity at 2 µM does the source give for COc1ccc(NC(=O)C2c3ccccc3C(=O)N(CC(C)C)C2c2cccs2)cc1 (centres unmarked) [MMV000662] here?
Its activity at 2 µM is 85.7%.
